For this test, the target named is T1, Xaa-Pro dipeptidase (Homo sapiens) (UniProt P12955).
T1 sequence (whole entry): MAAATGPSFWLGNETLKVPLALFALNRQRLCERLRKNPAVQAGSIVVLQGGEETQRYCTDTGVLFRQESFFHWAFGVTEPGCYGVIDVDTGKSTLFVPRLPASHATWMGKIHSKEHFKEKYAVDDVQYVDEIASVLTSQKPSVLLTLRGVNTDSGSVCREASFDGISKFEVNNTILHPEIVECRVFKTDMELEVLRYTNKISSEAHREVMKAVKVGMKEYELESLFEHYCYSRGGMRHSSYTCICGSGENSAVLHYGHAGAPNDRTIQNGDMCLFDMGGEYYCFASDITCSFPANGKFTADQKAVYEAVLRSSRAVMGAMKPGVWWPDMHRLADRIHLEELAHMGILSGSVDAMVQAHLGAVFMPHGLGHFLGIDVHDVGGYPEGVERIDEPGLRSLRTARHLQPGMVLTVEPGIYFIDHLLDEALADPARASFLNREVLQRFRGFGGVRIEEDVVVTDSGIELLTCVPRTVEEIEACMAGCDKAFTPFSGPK
Description: Inhibitory constant for inhibition of prolidase in the second phase of biphasic inhibition

Molecule `C=C(OP(=O)(O)O)C(=O)O` displayed a Ki' of 240 µM.

Source of the values: ChEMBL document CHEMBL1128857.
